According to ChEMBL document CHEMBL1134637, “Fluorescent tricyclic analogues of acyclovir and ganciclovir. A structure-antiviral activity study” (2001):
Values after ≈ are worked out from the molar mass of the structure shown.

Assays:
Type in all cases: functional
Human alphaherpesvirus 1 [1] = assay: Minimal inhibitory concentration to reduce virus-induced cytopathicity against KOS strain of human Herpes Simplex Virus -1
Human alphaherpesvirus 1 [2] = assay: Minimal inhibitory concentration to reduce virus-induced cytopathicity against Thymidine kinase deficient(TK-) HSV-1 (Acyclovir)
Vaccinia virus = assay: Minimal inhibitory concentration to reduce virus-induced cytopathicity against VV; conditions: Orthopoxvirus vaccinia
Human alphaherpesvirus 1 [3] = assay: Minimal inhibitory concentration to reduce virus-induced cytopathicity against F strain of human Herpes Simplex Virus-1 (HSV-1)
Human alphaherpesvirus 1 [4] = assay: Minimal inhibitory concentration to reduce virus-induced cytopathicity against TK-/TK+ HSV-1 (VMW 837)
Human alphaherpesvirus 1 [5] = assay: Minimal inhibitory concentration to reduce virus-induced cytopathicity against McIntyre strain of human Herpes Simplex Virus-1
Human alphaherpesvirus 2 [6] = assay: Minimal inhibitory concentration to reduce virus-induced cytopathicity against G strain of human Herpes Simplex Virus-2
Human alphaherpesvirus 2 [7] = assay: Minimal inhibitory concentration to reduce virus-induced cytopathicity against 196 strain of human Herpes Simplex Virus-2
Human alphaherpesvirus 2 [8] = assay: Minimal inhibitory concentration to reduce virus-induced cytopathicity against Lyons strain of human Herpes Simplex Virus-2
[9] = test system: Vesicular stomatitis virus; assay: Minimal inhibitory concentration to reduce virus-induced cytopathicity against VSV
[10] = Minimal cytotoxic concentration (MCC) to cause a microscopically detectable change in normal cell morphology
Human alphaherpesvirus 1 [11] = assay: Minimal inhibitory concentration to reduce virus-induced cytopathicity against TK-/TK+ HSV-1 of VMW 837
Human alphaherpesvirus 1 [12] = assay: Minimal inhibitory concentration to reduce virus-induced cytopathicity against Thymidine kinase deficient(TK-) HSV-1 of Acyclovir
[13] = Human alphaherpesvirus 1, read-out: MIC
[14] = Human alphaherpesvirus 2, read-out: MIC

| Compound | MIC (Human alphaherpesvirus 1 [1]) [µg/mL] | MIC (Human alphaherpesvirus 1 [2]) [µg/mL] | MIC (Vaccinia virus) [µg/mL] | MIC (Human alphaherpesvirus 1 [3]; [13]) [µg/mL] | MIC (Human alphaherpesvirus 1 [4]) [µg/mL] | MIC (Human alphaherpesvirus 1 [5]) [µg/mL] | MIC (Human alphaherpesvirus 2 [6]; [14]) [µg/mL] | MIC (Human alphaherpesvirus 2 [7]) [µg/mL] | MIC (Human alphaherpesvirus 2 [8]) [µg/mL] | MIC [9] [µg/mL] | MCC [10] [µg/mL] | MIC (Human alphaherpesvirus 1 [11]) [µg/mL] | MIC (Human alphaherpesvirus 1 [12]) [µg/mL] | MIC (Human alphaherpesvirus 1 [3]) [pug ml-1] | MIC (Human alphaherpesvirus 2 [6]) [pug ml-1] |
| --- | --- | --- | --- | --- | --- | --- | --- | --- | --- | --- | --- | --- | --- | --- | --- |
| Nc1nc2c(ncn2COCCO)c(=O)[nH]1 [ACYCLOVIR] | 0.13 (≈ 0.577 µM) | 19 (≈ 84.4 µM) | > 80 | 0.08 (≈ 0.355 µM) | 7.1 (≈ 31.5 µM) | 0.13 (≈ 0.577 µM) | 0.19 (≈ 0.844 µM) | 0.07 (≈ 0.311 µM) | 0.28 (≈ 1.24 µM) | > 80 | > 400 |  |  |  |  |
| O=[N+]([O-])c1ccc(-c2cn3c(O)c4ncn(COCCO)c4nc3n2)cc1 | 9.6 (≈ 25.9 µM) |  | > 16 | 16 (≈ 43.2 µM) |  | 16 (≈ 43.2 µM) | 9.6 (≈ 25.9 µM) | > 16 | > 16 | > 16 | 80 | > 16 | > 16 |  |  |
| OCCOCn1cnc2c(O)n3ccnc3nc21 | 20 (≈ 80.2 µM) |  | 400 (≈ 1600 µM) |  |  | 20 (≈ 80.2 µM) | 20 (≈ 80.2 µM) | 70 (≈ 281 µM) | 10 (≈ 40.1 µM) |  | 400 |  | 400 (≈ 1600 µM) | 4 |  |
| Cc1c(-c2ccccc2)nc2nc3c(ncn3COC(CO)CO)c(O)n12 | 0.02 (≈ 0.0541 µM) |  | > 400 | 0.005 (≈ 0.0135 µM) |  | 0.005 (≈ 0.0135 µM) | 0.03 (≈ 0.0812 µM) | 0.005 (≈ 0.0135 µM) | 0.02 (≈ 0.0541 µM) | > 240 | > 400 | 0.02 (≈ 0.0541 µM) | 3.2 (≈ 8.66 µM) |  |  |
| OCCOCn1cnc2c(O)n3c(CO)cnc3nc21 | > 3.2 |  | > 3.2 | > 3.2 |  | > 3.2 | > 3.2 | > 3.2 | > 3.2 | > 3.2 | > 16 | > 3.2 | > 3.2 |  |  |
| COc1ccc(OC)c(-c2cn3c(O)c4ncn(COCCO)c4nc3n2)c1 | 9.6 (≈ 24.9 µM) |  | > 16 | 16 (≈ 41.5 µM) |  | 16 (≈ 41.5 µM) | 9.6 (≈ 24.9 µM) | > 16 | > 16 | > 16 | 80 | > 16 | > 16 |  |  |
| OCC(CO)OCn1cnc2c(O)n3cc(-c4ccccc4)nc3nc21 | 0.02 (≈ 0.0563 µM) |  | > 90 | 0.005 (≈ 0.0141 µM) |  | 0.005 (≈ 0.0141 µM) | 0.3 (≈ 0.844 µM) | 0.02 (≈ 0.0563 µM) | 0.005 (≈ 0.0141 µM) | > 175 | > 175 | 0.5 (≈ 1.41 µM) |  |  |  |
| Nc1nc2c(ncn2COC(CO)CO)c(=O)[nH]1 [GANCICLOVIR] | 0.006 (≈ 0.0235 µM) |  | > 100 | 0.004 (≈ 0.0157 µM) |  | 0.006 (≈ 0.0235 µM) | 0.01 (≈ 0.0392 µM) | 0.02 (≈ 0.0784 µM) | 0.04 (≈ 0.157 µM) | > 100 | > 100 | 0.07 (≈ 0.274 µM) | 0.48 (≈ 1.88 µM) |  |  |
| COc1ccc(-c2cn3c(O)c4ncn(COC(CO)CO)c4nc3n2)cc1 | 0.005 (≈ 0.013 µM) |  | > 80 | 0.005 (≈ 0.013 µM) |  | 0.005 (≈ 0.013 µM) | 0.03 (≈ 0.0778 µM) | 0.08 (≈ 0.208 µM) | 0.02 (≈ 0.0519 µM) | > 80 | > 80 | 0.04 (≈ 0.104 µM) | > 16 |  |  |
| Cc1c(-c2ccccc2)nc2nc3c(ncn3COCCO)c(O)n12 | 0.11 (≈ 0.324 µM) |  | > 200 | 0.04 (≈ 0.118 µM) |  | 0.06 (≈ 0.177 µM) | 0.16 (≈ 0.471 µM) | 0.1 (≈ 0.295 µM) | 0.07 (≈ 0.206 µM) | > 200 | 300 | 3.2 (≈ 9.43 µM) | 3.2 (≈ 9.43 µM) |  |  |
| Cc1nc2nc3c(ncn3COCCO)c(O)n2c1C(c1ccccc1)(c1ccccc1)c1ccccc1 | > 16 |  | > 16 | > 16 |  | > 16 | > 16 | > 16 | > 16 | > 16 | 80 | > 16 | > 16 |  |  |
| OCCOCn1cnc2c(O)n3c(C(c4ccccc4)(c4ccccc4)c4ccccc4)cnc3nc21 | > 16 |  | > 16 | > 16 |  | > 16 | > 16 | > 16 | > 16 | > 16 | 80 | > 16 | > 16 |  |  |
| COc1ccccc1-c1cn2c(O)c3ncn(COCCO)c3nc2n1 | 1.92 (≈ 5.4 µM) |  | > 80 | 1.92 (≈ 5.4 µM) |  | 1.92 (≈ 5.4 µM) | 1.92 (≈ 5.4 µM) | 9.6 (≈ 27 µM) | 9.6 (≈ 27 µM) | > 80 | 400 | 9.6 (≈ 27 µM) | > 80 |  |  |
| COc1ccc(-c2nc3nc4c(ncn4COCCO)c(O)n3c2-c2ccc(C(c3ccccc3)c3ccccc3)cc2)cc1 | > 16 |  | > 16 | > 16 |  | > 16 |  | > 16 | > 16 | > 16 | 80 | > 16 | > 16 |  | >16 |
| COc1ccc(-c2cn3c(O)c4ncn(COCCO)c4nc3n2)c(OC)c1 | 1.92 (≈ 4.98 µM) |  | 16 (≈ 41.5 µM) | 1.92 (≈ 4.98 µM) |  | 1.92 (≈ 4.98 µM) | 3.2 (≈ 8.3 µM) | 1.92 (≈ 4.98 µM) | 1.92 (≈ 4.98 µM) | 16 (≈ 41.5 µM) | 80 | 1.92 (≈ 4.98 µM) | > 16 |  |  |
